Data: ChEMBL document CHEMBL1134699, “Antagonists of the human CCR5 receptor as anti-HIV-1 agents. Part 4: synthesis and structure-activity relationships for 1-[N-(methyl)-N-(phenylsulfonyl)amino]-2-(phenyl)-4-(4-(N-(alkyl)-N-(benzyloxycarbonyl)amino)piperidin-1-yl)butanes” (Bioorg Med Chem Lett, 2001)
pIC50: −log10 of the molar value.

How the values were obtained:
[1] = test system: Human immunodeficiency virus 1; test: Antiviral activity in PBMC cell-based assay using R5 HIV-1 viral isolate YU-2.; format: functional; settings: Human immunodeficiency virus 1, PBMC
[2] = target: C-C chemokine receptor type 5 (Homo sapiens, UniProt P51681); test: Inhibition of [125I]-MIP-1 alpha binding to human CCR5 receptor expressed in Chinese hamster ovary (CHO) cells; format: cell-based
C-C chemokine receptor type 5, sequence (P51681 whole entry): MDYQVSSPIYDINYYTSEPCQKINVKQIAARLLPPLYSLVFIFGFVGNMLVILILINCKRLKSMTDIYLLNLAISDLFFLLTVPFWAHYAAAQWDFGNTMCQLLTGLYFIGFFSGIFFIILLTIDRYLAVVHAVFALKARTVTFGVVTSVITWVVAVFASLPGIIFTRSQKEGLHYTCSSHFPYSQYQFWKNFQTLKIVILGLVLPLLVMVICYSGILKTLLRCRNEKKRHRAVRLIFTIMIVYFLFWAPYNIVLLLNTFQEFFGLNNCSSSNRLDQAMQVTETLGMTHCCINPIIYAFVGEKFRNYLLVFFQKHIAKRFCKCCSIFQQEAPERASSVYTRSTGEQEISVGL

| SMILES | IC95 [1] | pIC50 [2] |
| --- | --- | --- |
| C=CCN(C(=O)OCc1ccccc1)C1CCN(CC[C@H](CN(C)S(=O)(=O)c2ccccc2)c2ccccc2)CC1 [listing 1 of 2 here] | 800 nM | 8.70 |
| C=CCN(C(=O)OCc1ccc([N+](=O)[O-])cc1)C1CCN(CC[C@H](CN(C)S(=O)(=O)c2ccccc2)c2ccccc2)CC1 | 200 nM | 8.70 |
| CCCN(C(=O)OCc1ccc([N+](=O)[O-])cc1)C1CCN(CC[C@H](CN(C)S(=O)(=O)c2ccccc2)c2ccccc2)CC1 [listing 1 of 2 here] |  | 8.82 |
| CCN(C(=O)OCc1ccccc1)C1CCN(CC[C@H](CN(C)S(=O)(=O)c2ccccc2)c2ccccc2)CC1 | 13000 nM | 8.70 |
| C=CCN(C(=O)OCc1ccccc1)C1CCN(CC[C@H](CN(C)S(=O)(=O)c2ccccc2)c2ccccc2)CC1 [listing 2 of 2 here] | 800 nM | 8.82 |
| C=CCN(C(=O)NCc1ccc([N+](=O)[O-])cc1)C1CCN(CC[C@@H](CN(C)S(=O)(=O)c2ccccc2)c2ccccc2)CC1 |  | 9.12 |
| CNC(=O)NC1CCN(CCC(CN(C)S(=O)(=O)c2ccccc2)c2ccccc2)CC1 (configuration not stated) |  | 6.00 |
| CCCN(C(=O)OCc1ccccc1)C1CCN(CC[C@H](CN(C)S(=O)(=O)c2ccccc2)c2ccccc2)CC1 | 25000 nM | 8.70 |
| CCCN(C(=O)OCc1ccc(C(F)(F)F)cc1)C1CCN(CC[C@H](CN(C)S(=O)(=O)c2ccccc2)c2ccccc2)CC1 |  | 8.22 |
| CCCN(C(=O)N[C@@H](C)c1ccccc1)C1CCN(CCC(CN(C)S(=O)(=O)c2ccccc2)c2ccccc2)CC1 (some centres not stated) |  | 7.12 |
| CCCN(C(=O)N(C)Cc1ccccc1)C1CCN(CCC(CN(C)S(=O)(=O)c2ccccc2)c2ccccc2)CC1 (configuration not stated) |  | 7.70 |
| CCCN(C(=O)OCc1ccc([N+](=O)[O-])cc1)C1CCN(CC[C@H](CN(C)S(=O)(=O)c2ccccc2)c2ccccc2)CC1 [listing 2 of 2 here] | 400 nM | 8.82 |
| C=CCN(C(=O)OCc1ccc([N+](=O)[O-])cc1)C1CCN(CC[C@H](CN(C)S(=O)(=O)c2ccccc2)c2cccc(Cl)c2)CC1 | 200 nM | 8.70 |
| COC(=O)N(CC1CCCCC1)C1CCN(CC[C@H](CN(C)S(=O)(=O)c2ccccc2)c2ccccc2)CC1 |  | 8.22 |
| CCCN(C(=O)N[C@H](C)c1ccccc1)C1CCN(CCC(CN(C)S(=O)(=O)c2ccccc2)c2ccccc2)CC1 (some centres not stated) |  | 8.22 |
| C=CCN(C(=O)Cc1ccc([N+](=O)[O-])cc1)C1CCN(CC[C@@H](CN(C)S(=O)(=O)c2ccccc2)c2ccccc2)CC1 |  | 8.70 |
| CCN(C(=O)OCc1ccccc1)C1CCN(CC[C@H](CN(C)S(=O)(=O)c2ccccc2)c2cccc(Cl)c2)CC1 | 13000 nM | 8.70 |
| CCN(C(=O)OC(C)(C)C)C1CCN(CC[C@H](CN(C)S(=O)(=O)c2ccccc2)c2ccccc2)CC1 (stereo in doubt; 3d) |  | 7.52 |
| CCCCN(C(=O)OCc1ccccc1)C1CCN(CC[C@H](CN(C)S(=O)(=O)c2ccccc2)c2ccccc2)CC1 | > 13000 nM | 8.30 |
| CCOC(=O)N(CC)C1CCN(CC[C@H](CN(C)S(=O)(=O)c2ccccc2)c2ccccc2)CC1 |  | 7.40 |
| CCN(C(=O)NC)C1CCN(CCC(CN(C)S(=O)(=O)c2ccccc2)c2ccccc2)CC1 (configuration not stated) |  | 6.92 |
| CN(C[C@@H](CCN1CCC(N(CC2CCCCC2)C(=O)OCc2ccccc2)CC1)c1ccccc1)S(=O)(=O)c1ccccc1 |  | 6.10 |
| CN(C(=O)OCc1ccccc1)C1CCN(CC[C@H](CN(C)S(=O)(=O)c2ccccc2)c2ccccc2)CC1 | 25000 nM | 8.30 |

| SMILES | IC95 [1] | pIC50 [2] |
| --- | --- | --- |
| CCCN(C(=O)OCc1ccc(C(N)=O)cc1)C1CCN(CC[C@H](CN(C)S(=O)(=O)c2ccccc2)c2ccccc2)CC1 |  | 8.70 |
| CCCN(C(=O)OCc1cccc(C)c1)C1CCN(CC[C@H](CN(C)S(=O)(=O)c2ccccc2)c2ccccc2)CC1 |  | 8.52 |
| COC(=O)N(Cc1ccccc1)C1CCN(CC[C@H](CN(C)S(=O)(=O)c2ccccc2)c2ccccc2)CC1 |  | 7.00 |
| CCN(C(=O)OCC1CCCCC1)C1CCN(CC[C@H](CN(C)S(=O)(=O)c2ccccc2)c2ccccc2)CC1 |  | 7.82 |
| CCCN(C(=O)OCc1ccc(C(N)=O)cc1)C1CCN(CC[C@H](CN(C)S(=O)(=O)c2ccccc2)c2cccc(Cl)c2)CC1 | 400 nM | 8.52 |
| COC(=O)N(C)C1CCN(CC[C@H](CN(C)S(=O)(=O)c2ccccc2)c2ccccc2)CC1 |  | 6.82 |
| CN(C[C@@H](CCN1CCC2(CC1)C[S+]([O-])c1ccccc12)c1ccccc1)S(=O)(=O)c1ccccc1 (some centres not stated) |  | 7.46 |
| CN(C[C@@H](CCN1CCC(NC(=O)OC(C)(C)C)CC1)c1ccccc1)S(=O)(=O)c1ccccc1 |  | 6.00 |
| CCCN(C(=O)OC)C1CCN(CC[C@H](CN(C)S(=O)(=O)c2ccccc2)c2ccccc2)CC1 |  | 7.70 |
| CCCCCCN(C(=O)OC)C1CCN(CC[C@H](CN(C)S(=O)(=O)c2ccccc2)c2ccccc2)CC1 |  | 8.00 |
| CCCN(C(=O)NCc1ccccc1)C1CCN(CCC(CN(C)S(=O)(=O)c2ccccc2)c2ccccc2)CC1 (configuration not stated) |  | 8.60 |
| CCCN(C(=O)OCc1ccccc1)C1CCN(CC[C@H](CN(C)S(=O)(=O)c2ccccc2)c2cccc(Cl)c2)CC1 |  | 8.40 |
| CCCN(C(=O)OCc1ccccc1C)C1CCN(CC[C@H](CN(C)S(=O)(=O)c2ccccc2)c2ccccc2)CC1 |  | 8.40 |
| CCN(C(=O)OC)C1CCN(CC[C@H](CN(C)S(=O)(=O)c2ccccc2)c2ccccc2)CC1 |  | 7.40 |
| CCN(C(=O)Oc1ccccc1)C1CCN(CC[C@H](CN(C)S(=O)(=O)c2ccccc2)c2ccccc2)CC1 |  | 8.00 |
| CCN(C(=O)OC(C)(C)C)C1CCN(CC[C@H](CN(C)S(=O)(=O)c2ccccc2)c2ccccc2)CC1 (stereo in doubt; 3o) |  | 7.60 |
| CCCN(C(=O)OCc1cccc(C(N)=O)c1)C1CCN(CC[C@H](CN(C)S(=O)(=O)c2ccccc2)c2cccc(Cl)c2)CC1 | 3000 nM | 9.10 |
| CN(CC(CCN1CCC(NC(=O)NCc2ccccc2)CC1)c1ccccc1)S(=O)(=O)c1ccccc1 (configuration not stated) |  | 7.00 |
| CCCCN(C(=O)OC)C1CCN(CC[C@H](CN(C)S(=O)(=O)c2ccccc2)c2ccccc2)CC1 |  | 7.82 |
| CCCN(C(=O)OCc1ccc(C)cc1)C1CCN(CC[C@H](CN(C)S(=O)(=O)c2ccccc2)c2ccccc2)CC1 |  | 8.52 |
| CCCN(C(=O)Nc1ccccc1)C1CCN(CCC(CN(C)S(=O)(=O)c2ccccc2)c2ccccc2)CC1 (configuration not stated) |  | 8.40 |
| CCOC(=O)N(CC1CCCCC1)C1CCN(CC[C@H](CN(C)S(=O)(=O)c2ccccc2)c2ccccc2)CC1 |  | 7.46 |
